Test results: patent US20070105847A1, “1,3-Dioxane derivatives and analogues thereof useful in the treatment of i.a. obesity and diabetes” (priority 2004, published 2007)

Columns and labels:
Swiss albino mice = experiment: Serum triglyceride and total cholesterol lowering activity in Swiss albino mice; assay type: in vivo; settings: male Swiss albino mice, oral, 10 mg/kg/day for 6 days, 1 hour after dosing on 6th day
Description: • i) Serum triglyceride and total cholesterol lowering activity in Swiss albino mice:
Male Swiss albino mice (SAM) were bred in Zydus animal house. All these animals were maintained under 12 hour light and dark cycle at 25±1° C. Animals were given standard laboratory chow (NIN, Hyderabad, India) and water ad libitum. SAM of 20-30 g body weight range was used. The protocol approved by Institutional Animal Ethics Committee is being used.
The test compounds were administered orally to Swiss albino mice at 0.001 to 50 mg/kg/day dose for 6 days. The compound was administered after suspending it in 0.25% CMC or dissolving it in water, when compound is water-soluble. Control mice were treated with vehicle (0.25% of Carboxymethylcellulose; dose 10 ml/kg).
The blood samples were collected on 0th day and in fed state 1 hour after drug administration on 6th day of the treatment. The blood was collected in non heparinised capillary and the serum was analyzed for triglyceride and total cholesterol (Wieland, O. Methods of Enzymatic analysis. Bergermeyer, H., O., Ed., 1963. 211-214; Trinder, P. Ann. Clin. Biochem. 1969. 6: 24-27). Measurement of serum triglyceride and total cholesterol was done using commercial kits (Zydus-Cadila, Pathline, Ahmedabad, India).
Percentage reduction in triglycerides/total cholesterol were calculated according to the formula: [formula]
OC=Zero day control group value OT=Zero day treated group value TC=Test day control group TT=Test day treated group

[1] = test system: Hamster of Syrian golden stain; experiment: Serum triglyceride and total cholesterol lowering activity in Hamster of Syrian golden strain on HF-HC diet; assay type: in vivo; settings: hamsters on HF-HC diet, po, 3 mg/kg/day for 15 days
Excerpt: ii) Surem triglyceride and total cholesterol lowering activity in Hamster of Syrian golden stain:
Male and Female Hamster of Syrian golden stain were bred in Zydus animal house. All these animals were maintained under 12-hour light and dark cycle at 22±3 degree C. The protocol approved by Institutional Animal Ethics Committee is being used. Two groups of animals were put on HF-HC (High fat and high cholesterol) diet for 14 days. On day 14 […] one group of animals of were put on normal diet for two weeks.
One group of animals on HF-HC diet were treated (po) with compounds of the present invention, at 0.001 to 50 mg/kg daily for 15 days while the other group received the vehicle. After 15 days blood samples. were be collected in non heparinized capillary from animals for determination of total cholesterol (TC), triglyceride (TG) (Wieland, O. Methods of Enzymatic analysis. Bergermeyer, H., O., Ed., 1963. 211-214; Trinder, P. Ann. Clin. Biochem. 1969. 6: 24-27). Measurement of serum triglyceride and total cholesterol was done using commercial kits (Pointe Scientific. Inc. USA.)
Percentage reduction in triglycerides/total cholesterol were calculated according to the formula:
• Percentage reduction (%)=(TT−TC)/TC*100
TC=Test day control group TT=Test day treated group.

| Compound | % Triglyceride lowering (Swiss albino mice) [%] | % Triglyceride lowering [1] [%] |
| --- | --- | --- |
| CC1(C(=O)O)OCC(CCCCOc2ccc(Cc3ccccc3)cc2)CO1 (stereo not shown) [Example 38, 5-[4-(4-Benzyl-phenoxy)-butyl]-2-methyl-[1,3]dioxane-2-carboxylic acid] | 32 |  |
| CC1(C(=O)O)OCC(CCCCc2ccc(OCc3ccccc3)cc2)CO1 (stereo not shown) [Example 49, 5-[4-(4-Benzyloxy-phenyl)-butyl]-2-methyl-[1,3]dioxane-2-carboxylic acid] | 26 |  |
| CC1(C(=O)O)OCC(CCCCc2ccc(OS(C)(=O)=O)cc2)CO1 (stereo not shown) [Example 50, 5-[4-(4-Methanesulfonyloxy-phenyl)-butyl]-2-methyl-[1,3]dioxane-2-carboxylic acid] | 32 | 45 |
